Measured values published in US20240277745A1, “PEMAFIBRATE AND/OR TOFOGLIFLOZIN FOR USE IN TREATING LIVER DISEASE” (KOWA COMPANY, LTD, priority 2021, published 2024).

Columns and labels:
adults with NAFLD [1] = assay: Example 1 clinical study: liver fat content by MRI-PDFF; type: in vivo, human; details: for Liver fat content by MRI-PDFF, Responder / Liver fat content by MRI-PDFF, percent change from baseline: pemafibrate 0.4 mg/day BID; for Liver fat content by MRI-PDFF, mean difference: pemafibrate vs placebo
Protocol: (§1) This was a placebo-controlled, randomized, double-blind, parallel-group, study in adults with NAFLD. Subjects were administered pemafibrate tablets (0.4 mg/day, BID) or placebo tablets for 72 weeks following a screening period of from 2 to 8 weeks. The primary endpoint was percent change from baseline in liver fat content, measured by MRI-PDFF at week 24. The key secondary endpoints were percent changes in liver stiffness and ALT levels from baseline to week 72 and 24, respectively. The study was conducted in compliance with relevant guidelines, GCP guidance, and the Declaration of Helsinki.
(§2) Patients with a hepatic fat fraction ≥10% on MRI-PDFF, liver stiffness (measured using magnetic resonance elastography, MRE)≥2.5 kPa and elevated ALT (>40 U/L for men, >30 U/L for women) were enrolled. Patients were excluded in case of body mass index (BMI)<22 kg/m^2, uncontrolled diabetes (HbA1c≥8%), impaired renal function (estimated glomerular filtration rate, eGFR, <30 mL·min^−1·1.73^−1·m^−2 or on dialysis), cirrhosis, biliary obstruction, or chronic liver diseases other than NAFLD.
(§3) Subjects took their assigned medication (pemafibrate 0.2 mg tablet or placebo) orally, one tablet, twice daily, for 72 weeks. Study visits were set every 4 weeks from the start of treatment to week 24 and every 8 weeks from week 24 onwards. Liver fat content and liver stiffness were measured at screening examinations that took place pre-randomization and subsequently at weeks 0, 24, 48, and 72.
(§4) All imaging assessment procedures were performed blinded. The equipment used in all facilities was standardized to a 3.0 T MR Imaging System (GE Healthcare, Little Chalfont, UK). As an application, IDEAL-IQ for MRI-PDFF and MR-touch for MRE were used. Detailed imaging conditions are described in the “Imaging Procedure Manual” and imaging procedures were standardized throughout all tests. Imaging was performed during fasting (≥4 h postprandial) and the timing of testing (pre-breakfast/post-breakfast to pre-lunch/post-lunch) was unified for each patient throughout the study.
(§5) The primary efficacy endpoint was percent change in hepatic fat content, as measured using MRI-PDFF. Liver stiffness measured using MRE was a secondary endpoint and similarly assessed percent change from baseline values. Other efficacy endpoints included liver function, fibrosis and inflammatory markers, and lipid markers.

adults with NAFLD [2] = assay: Example 1 clinical study: liver stiffness by MRE; type: in vivo, human; details: for Liver stiffness by MRE, Responder / Liver stiffness by MRE, percent change from baseline: pemafibrate 0.4 mg/day BID; for Liver stiffness by MRE, mean difference: pemafibrate vs placebo
Protocol: as §1, §2, §3, §4, §5

[3] = reported by Ishibashi 2016; cited from earlier work
adults with NAFLD [4] = assay: Example 1 clinical study: lipids; type: in vivo, human; details: for HDL cholesterol, percent change from baseline / LDL cholesterol, percent change from baseline / Non-HDL cholesterol, percent change from baseline / Total cholesterol, percent change from baseline / Triglycerides, percent change from baseline: pemafibrate 0.4 mg/day BID; for HDL cholesterol, mean difference / LDL cholesterol, mean difference / Non-HDL cholesterol, mean difference / Total cholesterol, mean difference / Triglycerides, mean difference: pemafibrate vs placebo
Protocol: as §1, §2, §3, §5

[5] = system: LDL receptor knockout mice and KK-A mice fed with an MCD (methionine-choline-deficient) diet; details: cited from earlier work
adults with NAFLD [6] = assay: Example 1 clinical study: liver function (ALT, AST); type: in vivo, human; details: for ALT, percent change from baseline / AST, percent change from baseline: pemafibrate 0.4 mg/day BID; for ALT, mean difference / AST, mean difference: pemafibrate vs placebo
Protocol: as §1, §2, §3, §5

[7] = system: patients with biopsy-confirmed NAFLD and type 2 diabetes; assay: Example 3 clinical trial: metabolic parameters; type: in vivo, human
Excerpt: (§6) 1. The biopsy consistent with the diagnosis of NAFLD 2. Type 2 diabetes, HbA1c>=7.0% • Hepatic virus infections, autoimmune hepatitis, primary biliary cirrhosis, sclerosing cholangitis, haemochromatosis, antitrypsin deficiency, Wilsons disease, history of parenteral nutrition and use of drugs known to induce steatosis or hepatic injury caused by substance abuse and or the current or past consumption of more than 20 g of alcohol daily • Hypersensitivity to or contraindication of glimepiride and tofogliflozin • None type 2 diabetes • Poorly controlled diabetes • Repeated episodes of unexplained hypoglycemia • Concomitant infection or planned surgery • Poorly controlled hypertension • Severe retinopathy • Malignancy on an active therapeutic regimen or malignancy without complete remission or cure • Severe health problems not suitable for the study • Pregnant or lactating women • Inability to participate in the study as assessed by the investigators. A total of 40 patients were randomly assigned to receive once-daily tofogliflozin at a dose of 20 mg (20 patients) or to receive once-daily glimepiride (20 patients). All 40 patients (100%) completed the trial. Demographic and baseline clinical characteristics except for gender were similar in both groups. The patients were all Japanese and type 2 diabetes. The mean age was 53.9 years, the mean body weight 82.0 kg, the mean Hemoglobin A1c 8.2%, and the mean NAS 4.45. A total of 18 patients (45%) had stage F1 fibrosis, 11 (27.5%) had stage F2, and 5 (12.5%) had stage F3. A total of 40 patients were randomly assigned to receive once-daily tofogliflozin at a dose of 20 mg (20 patients) or to receive once-daily glimepiride (20 patients). All 40 patients (100%) completed the trial. Information for the primary and confirmatory secondary outcomes related to a biopsy at week 48 was available for 39 patients (97.5%). For only one patient with a serious adverse event (2.5%).

[8] = system: patients with biopsy-confirmed NAFLD and type 2 diabetes; assay: Example 3 clinical trial: liver histology (biopsy) at 48 weeks; type: in vivo, human; details: for histologic improvement from baseline to 48 weeks (in words): once-daily treatment
Excerpt: as §6

[9] = system: patients with biopsy-confirmed NAFLD and type 2 diabetes; assay: Example 3 clinical trial: serum enzyme levels and liver test; type: in vivo, human
Excerpt: as §6

[10] = week 48, P<0.001 for the comparison with glimepiride
[11] = baseline to 48 weeks, tofogliflozin 20 mg once daily

(R)-2-[3-[[N-(benzoxazol-2-yl)-N-3-(4-methoxyphenoxy)propyl]aminomethyl]phenoxy]butyric acid [Pemafibrate]
Liver fat content by MRI-PDFF, Responder (adults with NAFLD [1]; Week 24): 20.7 (12) %
Liver fat content by MRI-PDFF, percent change from baseline (adults with NAFLD [1]; Week 24): −5.28%
Liver fat content by MRI-PDFF, mean difference (adults with NAFLD [1]; Week 24): −1.04%
Liver fat content by MRI-PDFF, Responder (adults with NAFLD [1]; Week 48): 10.3 (6) %
Liver fat content by MRI-PDFF, percent change from baseline (adults with NAFLD [1]; Week 48): 0.50%
Liver fat content by MRI-PDFF, mean difference (adults with NAFLD [1]; Week 48): 1.03%
Liver fat content by MRI-PDFF, Responder (adults with NAFLD [1]; Week 72): 22.4 (13) %
Liver fat content by MRI-PDFF, percent change from baseline (adults with NAFLD [1]; Week 72): −4.88%
Liver fat content by MRI-PDFF, mean difference (adults with NAFLD [1]; Week 72): −5.10%
liver stiffness when measured by MRE (in words) (adults with NAFLD [2]; Example 1 study, summary): significant improvements
Liver stiffness by MRE, Responder (adults with NAFLD [2]; Week 24): 19.0 (11) %
Liver stiffness by MRE, percent change from baseline (adults with NAFLD [2]; Week 24): −5.03%
Liver stiffness by MRE, mean difference (adults with NAFLD [2]; Week 24): −4.38%
Liver stiffness by MRE, Responder (adults with NAFLD [2]; Week 48): 37.9 (22) %
Liver stiffness by MRE, percent change from baseline (adults with NAFLD [2]; Week 48): −9.01%
Liver stiffness by MRE, mean difference (adults with NAFLD [2]; Week 48): −5.68%
Liver stiffness by MRE, Responder (adults with NAFLD [2]; Week 72): 25.9 (15) %
Liver stiffness by MRE, percent change from baseline (adults with NAFLD [2]; Week 72): −7.27%
Liver stiffness by MRE, mean difference (adults with NAFLD [2]; Week 72): −6.15%
ALT concentrations (in words) [3]: much more modest decrease
LDL cholesterol (in words) [3]: increase
total cholesterol (in words) [3]: modest decrease
HDL cholesterol (in words) (adults with NAFLD [4]; Example 1 study, summary): significant reductions
LDL cholesterol (in words) (adults with NAFLD [4]; Example 1 study, summary): significant reductions
total cholesterol (in words) (adults with NAFLD [4]; Example 1 study, summary): significant reductions
HDL cholesterol, percent change from baseline (adults with NAFLD [4]; Week 24): −1.68%
LDL cholesterol, percent change from baseline (adults with NAFLD [4]; Week 24): −14.72%
Non-HDL cholesterol, percent change from baseline (adults with NAFLD [4]; Week 24): −13.82%
Total cholesterol, percent change from baseline (adults with NAFLD [4]; Week 24): −11.19%
Triglycerides, percent change from baseline (adults with NAFLD [4]; Week 24): −34.60%
HDL cholesterol, mean difference (adults with NAFLD [4]; Week 24): −7.57%
LDL cholesterol, mean difference (adults with NAFLD [4]; Week 24): −13.66%
Non-HDL cholesterol, mean difference (adults with NAFLD [4]; Week 24): −12.82%
Total cholesterol, mean difference (adults with NAFLD [4]; Week 24): −11.55%
Triglycerides, mean difference (adults with NAFLD [4]; Week 24): −31.11%
HDL cholesterol, percent change from baseline (adults with NAFLD [4]; Week 48): −6.40%
LDL cholesterol, percent change from baseline (adults with NAFLD [4]; Week 48): −14.22%
Non-HDL cholesterol, percent change from baseline (adults with NAFLD [4]; Week 48): −12.95%
Total cholesterol, percent change from baseline (adults with NAFLD [4]; Week 48): −11.55%
Triglycerides, percent change from baseline (adults with NAFLD [4]; Week 48): −27.11%
HDL cholesterol, mean difference (adults with NAFLD [4]; Week 48): −10.24%
LDL cholesterol, mean difference (adults with NAFLD [4]; Week 48): −16.37%
Non-HDL cholesterol, mean difference (adults with NAFLD [4]; Week 48): −14.24%
Total cholesterol, mean difference (adults with NAFLD [4]; Week 48): −13.19%
Triglycerides, mean difference (adults with NAFLD [4]; Week 48): −25.77%
HDL cholesterol, percent change from baseline (adults with NAFLD [4]; Week 72): −7.38%
LDL cholesterol, percent change from baseline (adults with NAFLD [4]; Week 72): −12.48%
Non-HDL cholesterol, percent change from baseline (adults with NAFLD [4]; Week 72): −11.92%
Total cholesterol, percent change from baseline (adults with NAFLD [4]; Week 72): −11.12%
Triglycerides, percent change from baseline (adults with NAFLD [4]; Week 72): −31.55%
HDL cholesterol, mean difference (adults with NAFLD [4]; Week 72): −11.86%
LDL cholesterol, mean difference (adults with NAFLD [4]; Week 72): −15.14%
Non-HDL cholesterol, mean difference (adults with NAFLD [4]; Week 72): −15.77%
Total cholesterol, mean difference (adults with NAFLD [4]; Week 72): −14.86%
Triglycerides, mean difference (adults with NAFLD [4]; Week 72): −32.67%
ballooning of hepatocytes, fat deposition, number of Kupffer cells (in words) [5]: suppresses ballooning of hepatocytes and fat deposition and reduces the number of Kupffer cells
liver function as measured by ALT (in words) (adults with NAFLD [6]; Example 1 study, summary): significant improvements
ALT, percent change from baseline (adults with NAFLD [6]; Week 24): −39.53%
AST, percent change from baseline (adults with NAFLD [6]; Week 24): −9.21%
ALT, mean difference (adults with NAFLD [6]; Week 24): −27.08%
AST, mean difference (adults with NAFLD [6]; Week 24): −2.69%
ALT, percent change from baseline (adults with NAFLD [6]; Week 48): −42.53%
AST, percent change from baseline (adults with NAFLD [6]; Week 48): −9.75%
ALT, mean difference (adults with NAFLD [6]; Week 48): −26.75%
AST, mean difference (adults with NAFLD [6]; Week 48): −0.18%
ALT, percent change from baseline (adults with NAFLD [6]; Week 72): −43.84%
AST, percent change from baseline (adults with NAFLD [6]; Week 72): −9.61%
ALT, mean difference (adults with NAFLD [6]; Week 72): −33.60%
AST, mean difference (adults with NAFLD [6]; Week 72): −4.48%

CCc1ccc(Cc2ccc3c(c2)[C@]2(OC3)OC(CO)[C@@H](O)C(O)C2O)cc1 (stereo in doubt) [tofogliflozin, 6-((4-ethylphenyl)methyl)-3′,4′,5′,6′-tetrahydro-6′-(hydroxymethyl)spiro(isobenzofuran-1(3H),2′-(2H)pyran)-3′,4′,5′-triol]
BMI (in words) ([7]; tofogliflozin 20 mg once daily): significant reduction
percentage of body fat (in words) ([7]; tofogliflozin 20 mg once daily): significant reduction
mean body weight decrease [7, 10]: 4.8 kg
NAS compared with baseline values (in words) ([8]; 48 weeks): improved significantly
fibrosis score (in words) ([8]; 48 weeks): significantly reduced
lobular inflammation score (in words) ([8]; 48 weeks): significantly reduced
mean ballooning scores (in words) ([8]; 48 weeks): significantly reduced
mean steatosis scores (in words) ([8]; 48 weeks): significantly reduced
percentage of steatosis (in words) ([8]; 48 weeks): significantly reduced
ratio of the patients with improvement in ballooning necrosis [8, 11]: 55%
ratio of the patients with improvement in lobular inflammation [8, 11]: 50%
ratio of the patients with improvement in steatosis [8, 11]: 65%
fibrosis scores improved ([8]; before and after treatment, 48 weeks, P=0.001): 60%
histologic improvement from baseline to 48 weeks (in words) ([8]; 48 weeks): significant histologic improvements from baseline to 48 weeks in all variables
FIB-4 index (in words) ([9]; tofogliflozin 20 mg once daily): significantly reduced
alanine aminotransferase levels (in words) ([9]; tofogliflozin 20 mg once daily): early and highly significant decrease
aspartate aminotransferase levels (in words) ([9]; tofogliflozin 20 mg once daily): early and highly significant decrease
gamma-glutamyl transferase, mean decrease [9, 10]: 23.8 IU/L

CCC1=C(C)CN(C(=O)NCCc2ccc(S(=O)(=O)NC(=O)N[C@H]3CC[C@H](C)CC3)cc2)C1=O [glimepiride]
NAS compared with baseline values (in words) ([8]; 48 weeks): improved significantly
mean ballooning scores (in words) ([8]; 48 weeks): significantly reduced
histologic improvement from baseline to 48 weeks (in words) ([8]; 48 weeks): the only histologic improvement from baseline to 48 weeks was a reduction in ballooning necrosis
